Experimental data as given in patent US6737383B1, “Herbicidal oxadiazolidines” (priority 1999, dated 2004).

Legend:
bedstraw = experiment: Test B pre/postemergence bedstraw; type: in vivo, Galium aparine
Summary of the method: (§1)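 Herbicidal effect was estimated by eye on a ten-point control scale after plants spent twelve to sixteen days in a greenhouse following soil or foliar treatment. Foliar sprays targeted plants at one to four leaves; all doses were formulated in a non-phytotoxic solvent with surfactant.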

blackgrass = experiment: Test B pre/postemergence blackgrass; type: in vivo, Alopecurus myosuroides
Summary of the method: as §1

surinam grass = experiment: Test B pre/postemergence surinam grass; type: in vivo, Brachiaria decumbens
Summary of the method: as §1

cocklebur = experiment: Test B pre/postemergence cocklebur; type: in vivo, Xanthium strumarium
Summary of the method: as §1

corn = experiment: Test B pre/postemergence corn; type: in vivo, Zea mays
Summary of the method: as §1

giant foxtail = experiment: Test B pre/postemergence giant foxtail; type: in vivo, Setaria faberii
Summary of the method: as §1

morningglory = experiment: Test B pre/postemergence morningglory; type: in vivo, Ipomoea hederacea
Summary of the method: as §1

pigweed = experiment: Test B pre/postemergence pigweed; type: in vivo, Amaranthus retroflexus
Summary of the method: as §1

rape = experiment: Test B pre/postemergence rape; type: in vivo, Brassica napus
Summary of the method: as §1

sugar beet = experiment: Test B pre/postemergence sugar beet; type: in vivo, Beta vulgaris
Summary of the method: as §1

velvetleaf = experiment: Test B pre/postemergence velvetleaf; type: in vivo, Abutilon theophrasti
Summary of the method: as §1

purple nutsedge = experiment: Test B pre/postemergence purple nutsedge; type: in vivo, Cyperus rotundus
Summary of the method: as §1

rice = experiment: Test B flood test rice; type: in vivo, Oryza sativa
Summary of the method: (§2)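 Plants were grown to the 2-leaf stage before treatment with test chemical, then held in a greenhouse for twelve to sixteen days. Injury was visually rated against untreated controls on a 0–10 scale, where 0 is no effect and 10 is complete control.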

duck salad = experiment: Test B flood test duck salad; type: in vivo, Heteranthera limosa
Summary of the method: as §2

bamyardgrass = experiment: Test B flood test barnyardgrass; type: in vivo, Echinochloa crus-galli
Summary of the method: as §2

[1] = Postemergence, Rate 125 g/ha, scale 0 to 10, 0 is no effect, 10 is complete control
[2] = Preemergence, Rate 62 g/ha, scale of 0 to 10 where 0 is no effect and 10 is complete control
[3] = Preemergence, Rate 250 g/ha, scale of 0 to 10 where 0 is no effect and 10 is complete control
[4] = Preemergence, Rate 500 g/ha, scale of 0 to 10 where 0 is no effect and 10 is complete control
[5] = Rate 62 g/ha, Postemergence, scale 0 to 10 (0 no effect, 10 complete control)
[6] = Rate 500 g/ha, Postemergence, scale 0 to 10, 0 no effect, 10 complete control
[7] = Rate 250 g/ha, Postemergence, scale of 0 to 10 where 0 is no effect and 10 is complete control
[8] = Rate 62 g/ha, headed Pre-emergence (flood test species), scale 0 to 10 (0 no effect, 10 complete control)
[9] = Rate 125 g/ha, Pre-emergence, flood test species, scale 0 to 10 where 0 is no effect and 10 is complete control
[10] = Rate 250 g/ha, Pre-emergence, flood-test species, scale 0 to 10, 0 is no effect, 10 is complete control
[11] = Rate 500 g/ha, Pre-emergence, flood test species, scale 0 to 10 (0 no effect, 10 complete control)

Cc1ccc(N(C(=O)n2oc(=O)n(-c3ccc4ccccc4c3)c2=O)C(C)C)cc1 [Compound 334]
0: Plant response rating, Bedstraw (bedstraw; [1]) | Bedstraw plant response rating (bedstraw; [2]) | Bedstraw plant response rating (0 to 10 scale) (bedstraw; Preemergence, Rate 125 g/ha) | Bedstraw plant response rating (bedstraw; [3]) | Bedstraw plant response rating (bedstraw; [4]) | Bedstraw plant response rating (bedstraw; [5]) | Plant response rating, Bedstraw (bedstraw; [6]) | Plant response rating, Blackgrass (blackgrass; [1]) | Blackgrass plant response rating (blackgrass; [2]) | Blackgrass plant response rating (0 to 10 scale) (blackgrass; Preemergence, Rate 125 g/ha) | Blackgrass plant response rating (blackgrass; [3]) | Blackgrass plant response rating (blackgrass; [4]) | Blackgrass plant response rating (blackgrass; [5]) | Plant response rating, Blackgrass (blackgrass; [7]) | Plant response rating, Blackgrass (blackgrass; [6]) | Plant response rating, B. signalgrass (surinam grass; [1]) | B. signalgrass plant response rating (surinam grass; [2]) | B. signalgrass plant response rating (0 to 10 scale, 0 is no effect, 10 is complete control) (surinam grass; Preemergence, Rate 125 g/ha) | B. signalgrass plant response rating (surinam grass; [3]) | B. signalgrass plant response rating (surinam grass; [4]) | B. signalgrass plant response rating (surinam grass; [5]) | Plant response rating, B. signalgrass (surinam grass; [7]) | Plant response rating, B. signalgrass (surinam grass; [6]) | Plant response rating, Cocklebur (cocklebur; [1]) | Cocklebur plant response rating (cocklebur; [2]) | Cocklebur plant response rating (0 to 10 scale) (cocklebur; Preemergence, Rate 125 g/ha) | Cocklebur plant response rating (cocklebur; [3]) | Cocklebur plant response rating (cocklebur; [4]) | Cocklebur plant response rating (cocklebur; [5]) | Plant response rating, Cocklebur (cocklebur; [6]) | Plant response rating, Corn (corn; [1]) | Corn plant response rating (corn; [2]) | Corn plant response rating (0 to 10 scale) (corn; Preemergence, Rate 125 g/ha) | Corn plant response rating (corn; [3]) | Corn plant response rating (corn; [4]) | Corn plant response rating (corn; [5]) | Plant response rating, Corn (corn; [6]) | Plant response rating, Giant foxtail (giant foxtail; [1]) | Giant foxtail plant response rating (giant foxtail; [2]) | Giant foxtail plant response rating (0 to 10 scale) (giant foxtail; Preemergence, Rate 125 g/ha) | Giant foxtail plant response rating (giant foxtail; [3]) | Giant foxtail plant response rating (giant foxtail; [4]) | Giant foxtail plant response rating (giant foxtail; [5]) | Plant response rating, Giant foxtail (giant foxtail; [6]) | Plant response rating, Morningglory (morningglory; [1]) | Morningglory plant response rating (morningglory; [2]) | Morningglory plant response rating (0 to 10 scale) (morningglory; Preemergence, Rate 125 g/ha) | Morningglory plant response rating (morningglory; [3]) | Morningglory plant response rating (morningglory; [4]) | Morningglory plant response rating (morningglory; [5]) | Plant response rating, Morningglory (morningglory; [6]) | Plant response rating, Redroot pigweed (pigweed; [1]) | Redroot pigweed plant response rating (pigweed; [2]) | Redroot pigweed plant response rating (0 to 10 scale) (pigweed; Preemergence, Rate 125 g/ha) | Redroot pigweed plant response rating (pigweed; [3]) | Redroot pigweed plant response rating (pigweed; [4]) | Redroot pigweed plant response rating (pigweed; [5]) | Plant response rating, Redroot pigweed (pigweed; [6]) | Plant response rating, Rape (rape; [1]) | Rape plant response rating (rape; [2]) | Rape plant response rating (0 to 10 scale) (rape; Preemergence, Rate 125 g/ha) | Rape plant response rating (rape; [3]) | Rape plant response rating (rape; [4]) | Rape plant response rating (rape; [5]) | Plant response rating, Rape (rape; [6]) | Plant response rating, Sugarbeets (sugar beet; [1]) | Sugarbeets plant response rating (sugar beet; [2]) | Sugarbeets plant response rating (0 to 10 scale) (sugar beet; Preemergence, Rate 125 g/ha) | Sugarbeets plant response rating (sugar beet; [3]) | Sugarbeets plant response rating (sugar beet; [4]) | Sugarbeets plant response rating (sugar beet; [5]) | Plant response rating, Sugarbeets (sugar beet; [6]) | Plant response rating, Velvetleaf (velvetleaf; [1]) | Velvetleaf plant response rating (velvetleaf; [2]) | Velvetleaf plant response rating (0 to 10 scale) (velvetleaf; Preemergence, Rate 125 g/ha) | Velvetleaf plant response rating (velvetleaf; [3]) | Velvetleaf plant response rating (velvetleaf; [4]) | Velvetleaf plant response rating (velvetleaf; [5]) | Plant response rating, Velvetleaf (velvetleaf; [6]) | Plant response rating, Nutsedge (purple nutsedge; [1]) | Nutsedge plant response rating (purple nutsedge; [2]) | Nutsedge plant response rating (0 to 10 scale) (purple nutsedge; Preemergence, Rate 125 g/ha) | Nutsedge plant response rating (purple nutsedge; [3]) | Nutsedge plant response rating (purple nutsedge; [4]) | Nutsedge plant response rating (purple nutsedge; [5]) | Plant response rating, Nutsedge (purple nutsedge; [6]) | Rice plant response rating (rice; [8]) | Rice plant response rating (rice; [9]) | Rice plant response rating (rice; [10]) | Rice plant response rating (rice; [11]) | Ducksalad plant response rating (duck salad; [8]) | Ducksalad plant response rating (duck salad; [9]) | Ducksalad plant response rating (duck salad; [10]) | Ducksalad plant response rating (duck salad; [11]) | Barnyardgrass plant response rating (bamyardgrass; [8]) | Barnyardgrass plant response rating (bamyardgrass; [9]) | Barnyardgrass plant response rating (bamyardgrass; [10]) | Barnyardgrass plant response rating (bamyardgrass; [11])
